The values that follow are results of earlier work, collected in patent US5594100A, “Epitope for prevention of type I diabetes” (Regents of the University of Colorado, priority 1995, dated 1997).

In the series the test system is islet-specific T cell lines and clones from islet-infiltrating lymphocytes. Conditions: panel of nominally islet-specific lines and clones from female NOD mice.

As to “porcine insulin: Porcine insulin (Sigma) used for testing specificity of insulin-specific T cell lines and clones”, the “T cell lines and clones responding to porcine insulin” value is listed as 22 of 40; the “percent of T cell lines and clones responding to porcine insulin” value is recorded as 55%.
